Series [1] is described as follows: Metabolic stability in CD-1 mouse liver microsomes assessed as compound remaining after 90 mins in presence of NADPH. It is filed as ADME, Microsome. The settings on record: read-out: Stability. (Liver microsomes are vesicles of endoplasmic reticulum, rich in cytochrome P450 enzymes.)
Series [2] deals with T1, Bifunctional epoxide hydrolase 2 (Homo sapiens, UniProt P34913).
T1 sequence (P34913 whole entry): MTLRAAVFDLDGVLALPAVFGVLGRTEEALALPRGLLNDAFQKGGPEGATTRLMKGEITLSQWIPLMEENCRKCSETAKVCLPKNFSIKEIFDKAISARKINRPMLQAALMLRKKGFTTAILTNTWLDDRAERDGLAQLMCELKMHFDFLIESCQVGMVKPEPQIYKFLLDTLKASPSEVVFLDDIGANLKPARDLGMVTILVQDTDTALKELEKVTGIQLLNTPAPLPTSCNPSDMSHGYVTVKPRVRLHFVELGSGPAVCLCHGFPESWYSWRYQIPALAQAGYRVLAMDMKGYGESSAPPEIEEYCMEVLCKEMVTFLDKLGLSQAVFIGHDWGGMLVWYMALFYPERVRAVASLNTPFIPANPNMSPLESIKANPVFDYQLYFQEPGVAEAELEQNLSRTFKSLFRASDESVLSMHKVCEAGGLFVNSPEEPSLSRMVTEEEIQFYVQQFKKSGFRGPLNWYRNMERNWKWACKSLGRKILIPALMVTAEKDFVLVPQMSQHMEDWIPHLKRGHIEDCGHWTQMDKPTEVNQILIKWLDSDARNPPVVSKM

The subject of series [3] is Plasma. The note with it: human, 4 h, 10 µM.
The conditions of series [4]: buffer, 18 h, pH 7.4.
Series [5] has as its system Vero. Kind of series: cells. The settings on record: Chlorocebus sabaeus, 72 h.
Series [6] relates to Pseudomonas aeruginosa. Kind of series: microbe, parasite or virus in culture.
The test system of series [7] is Proteus vulgaris. Kind of series: microbe, parasite or virus in culture.
Series [8] concerns Proteus mirabilis. Kind of series: microbe, parasite or virus in culture.
The subject of series [9] is Klebsiella pneumoniae. Briefly: microbe, parasite or virus in culture.
Series [10] has as its system Escherichia coli. Briefly: microbe, parasite or virus in culture. The settings on record: K-12.
In series [11] the test system is Burkholderia cepacia. Kind of series: microbe, parasite or virus in culture.
Series [12] has as its system Bacillus subtilis. Kind of series: microbe, parasite or virus in culture.
The subject of series [13] is Acinetobacter. Kind of series: microbe, parasite or virus in culture.
Series [14] concerns Streptococcus pneumoniae. Briefly: microbe, parasite or virus in culture.
The subject of series [15] is Streptococcus pyogenes. Kind of series: microbe, parasite or virus in culture.
Series [16] concerns Staphylococcus aureus. Briefly: microbe, parasite or virus in culture. The note with it: NRS70.
The test system of series [17] is Staphylococcus aureus. Kind of series: microbe, parasite or virus in culture. The settings on record: ATCC 29213.
Series [18] concerns Enterococcus faecalis. Kind of series: microbe, parasite or virus in culture.
The test system of series [19] is Bacillus anthracis. Briefly: microbe, parasite or virus in culture. The note with it: Sterne.
In series [20] the test system is Mycobacterium tuberculosis. Briefly: microbe, parasite or virus in culture. The settings on record: H37Rv, 168 h.

≈ marks a conversion by molar mass, not a printed value. A value given as a limit tells only on which side of the number the result lay.

By IC50 is commonly meant the midpoint of a concentration-inhibition curve. Read a high IC50 as lower potency. In general, solubility refers to how much of the substance goes into solution per volume. Read a high solubility as a readily soluble substance.

As to `CC(C)(C)c1cc(NC(=O)NC2C3CC4CC(C3)CC2C4)no1` (stereo not given), in series [1], the remaining at […] is above 30%. Also, the half-maximal inhibitory concentration (IC50) in series [2] was found to be 73 nM; in [5], 7 µg/mL (≈ 22.1 µM). In addition, in series [3], the PPB was determined as 95.2%. The compound also had a solubility in series [4] of 22.7 µg/mL (≈ 71.5 µM). Further, the MIC in series [6], in series [7], in series [8], in series [9], in series [10] and in series [11] was above 200 µg/mL each time. In addition, the MIC was above 200 µg/mL in series [12]; above 200 µg/mL in series [13]; above 200 µg/mL in series [14]; above 200 µg/mL in series [15]; 200 µg/mL (≈ 630 µM) in series [16]; above 200 µg/mL in series [17]. Moreover, the figures for the MIC in [18], in [19] and in series [20] were 6.25 µg/mL (≈ 19.7 µM), above 200 µg/mL and 0.1 µg/mL (≈ 0.315 µM), respectively.

Source of the values: ChEMBL document CHEMBL2390858, “Design, synthesis and anti-tuberculosis activity of 1-adamantyl-3-heteroaryl ureas with improved in vitro pharmacokinetic properties” (Bioorg Med Chem, 2013).
